Experimental data: ChEMBL document CHEMBL4813945, “Discovery and development of novel pyrimidine and pyrazolo/thieno-fused pyrimidine derivatives as potent and orally active inducible nitric oxide synthase dimerization inhibitor with efficacy for arthritis” (Eur J Med Chem, 2021)

Tests used:
[1] = system: RAW264.7; experiment: Antiinflammatory activity against mouse RAW264.7 cells assessed as inhibition of LPS-induced NO production at 10 uM preincubated for 1 hrs followed by LPS stimulation and measured after 24 hrs by Griess assay relative to control; type: functional; conditions: time 25 hrs
[2] = system: L02; experiment: Antiinflammatory activity against human L02 assessed as inhibition of LPS-induced NO production preincubated for 1 hrs followed by LPS stimulation and measured after 24 hrs by Griess assay relative to control; type: functional, cell-based
[3] = system: RAW264.7; experiment: Cytotoxicity against mouse RAW264.7 cells at 20 uM measured after 24 hrs; type: cell-based; conditions: raw264.7, 24 h

CNc1nc(/C=C/c2ccco2)nc2ccsc12
inhibition at 10 µM [1]: 29.1% | IC50 [2]: 811 µM | Activity [3]: Non-Toxic

CC(C)CNc1nc(/C=C/c2ccccc2)nc2ccsc12
inhibition at 10 µM [1]: 25% | IC50 [2]: > 1000 µM | Activity [3]: Non-Toxic

COc1cc(/C=C/c2nc(Cl)cc(NC(C)C)n2)cc(OC)c1OC
inhibition at 10 µM [1]: 29% | IC50 [2]: < 40 µM | Activity [3]: Non-Toxic

COc1cc(/C=C/c2nc(N3CCOCC3)c3sccc3n2)cc(OC)c1OC
inhibition at 10 µM [1]: 12.2% | IC50 [2]: > 1000 µM | Activity [3]: Non-Toxic

CCCc1nn(C)c2c(NC(C)C)nc(CCc3cccnc3)nc12
inhibition at 10 µM [1]: 30.2% | IC50 [2]: 514 µM | Activity [3]: Non-Toxic

CCCc1nn(C)c2c(NCc3ccc(F)cc3)nc(/C=C/c3cccnc3)nc12
inhibition at 10 µM [1]: 61.3% | IC50 [2]: 940 µM | Activity [3]: Non-Toxic

CCCc1nn(C)c2c(NCc3ccc(F)cc3)nc(CCc3cccnc3)nc12
inhibition at 10 µM [1]: 18.8% | IC50 [2]: < 40 µM | Activity [3]: Non-Toxic

CCCc1nn(C)c2c(NCCc3ccccc3)nc(CCc3cccnc3)nc12
inhibition at 10 µM [1]: 36.5% | IC50 [2]: 783 µM | Activity [3]: Non-Toxic

C(=C\c1nc(N2CCOCC2)c2sccc2n1)/c1ccccc1
inhibition at 10 µM [1]: 34.1% | IC50 [2]: > 1000 µM | Activity [3]: Non-Toxic

Clc1ccc(CNc2nc(/C=C/c3ccco3)nc3ccsc23)cc1
inhibition at 10 µM [1]: 13% | IC50 [2]: > 1000 µM | Activity [3]: Non-Toxic

CCCc1nn(C)c2c(NC3CC3)nc(CCc3cccnc3)nc12
inhibition at 10 µM [1]: 7.29% | IC50 [2]: 564 µM | Activity [3]: Non-Toxic

Clc1ccccc1CNc1nc(/C=C/c2ccccc2)nc2ccsc12
inhibition at 10 µM [1]: 35.2% | IC50 [2]: > 1000 µM | Activity [3]: Non-Toxic

CCCc1nn(C)c2c(NCCc3cccc(Cl)c3)nc(/C=C/c3cccnc3)nc12
inhibition at 10 µM [1]: 66.7% | IC50 [2]: > 1000 µM | Activity [3]: Non-Toxic

CCCc1nn(C)c2c(NC(C)C)nc(/C=C/c3ccc[n+]([O-])c3)nc12
inhibition at 10 µM [1]: 45.8% | IC50 [2]: 324 µM | Activity [3]: Non-Toxic

COc1cc(/C=C/c2nc(NC(C)C)c3sccc3n2)cc(OC)c1OC
inhibition at 10 µM [1]: 59.1% | IC50 [2]: > 1000 µM | Activity [3]: Non-Toxic

COc1cc(/C=C/c2nc(NCCc3ccccc3)c3sccc3n2)cc(OC)c1OC
inhibition at 10 µM [1]: 46.2% | IC50 [2]: < 40 µM | Activity [3]: Non-Toxic

CCCc1nn(C)c2c(NCCc3cccc(Cl)c3)nc(CCc3cccnc3)nc12
inhibition at 10 µM [1]: 37.5% | IC50 [2]: 612 µM | Activity [3]: Non-Toxic

CCCc1nn(C)c2c(NC(C)C)nc(/C=C/c3nc(C)c(C)nc3C)nc12
inhibition at 10 µM [1]: 54.8% | IC50 [2]: 342 µM | Activity [3]: Non-Toxic

COc1cc(/C=C/c2nc(NCCc3ccc(F)cc3)c3sccc3n2)cc(OC)c1OC
inhibition at 10 µM [1]: 26.9% | IC50 [2]: < 40 µM | Activity [3]: Non-Toxic

COc1cc(/C=C/c2nccc(NCCc3ccccc3)n2)cc(OC)c1OC
inhibition at 10 µM [1]: 85% | IC50 [2]: < 40 µM | Activity [3]: Non-Toxic

CCCc1nn(C)c2c(NC3CC3)nc(/C=C/c3nc(C)c(C)nc3C)nc12
inhibition at 10 µM [1]: 48.4% | IC50 [2]: 706 µM | Activity [3]: Non-Toxic

CNc1nc(/C=C/c2ccccc2)nc2ccsc12
inhibition at 10 µM [1]: 21.9% | IC50 [2]: > 1000 µM | Activity [3]: Non-Toxic

COc1ccc(Nc2nc(/C=C/c3ccccc3)nc3ccsc23)cc1
inhibition at 10 µM [1]: 21.9% | IC50 [2]: > 1000 µM | Activity [3]: Non-Toxic

C(=C\c1nc(Nc2ccccc2)c2sccc2n1)/c1ccccc1
inhibition at 10 µM [1]: 21% | IC50 [2]: > 1000 µM | Activity [3]: Non-Toxic

CCN1CCN(c2nc(/C=C/c3cc(OC)c(OC)c(OC)c3)nc3ccsc23)CC1
inhibition at 10 µM [1]: 46.7% | IC50 [2]: > 1000 µM | Activity [3]: Non-Toxic

CC(C)Nc1nc(/C=C/c2ccccc2)nc2ccsc12
inhibition at 10 µM [1]: 22.9% | IC50 [2]: > 1000 µM | Activity [3]: Non-Toxic

COc1cc(/C=C/c2nc(N3CCN(C)CC3)c3sccc3n2)cc(OC)c1OC
inhibition at 10 µM [1]: 39.3% | IC50 [2]: > 1000 µM | Activity [3]: Non-Toxic

COc1cc(/C=C/c2nc(O)nc(NCCc3ccccc3)n2)cc(OC)c1OC
inhibition at 10 µM [1]: 57% | IC50 [2]: < 40 µM | Activity [3]: Non-Toxic

CCCc1nn(C)c2c(N3CCOCC3)nc(CCc3cccnc3)nc12
inhibition at 10 µM [1]: 27.1% | IC50 [2]: 859 µM | Activity [3]: Non-Toxic

CCCc1nn(C)c2c(NCCc3ccccc3)nc(/C=C/c3nc(C)c(C)nc3C)nc12
inhibition at 10 µM [1]: 52.7% | IC50 [2]: < 40 µM | Activity [3]: Non-Toxic

CCCc1nn(C)c2c(N3CCS(=O)(=O)CC3)nc(/C=C/c3ccc[n+]([O-])c3)nc12
inhibition at 10 µM [1]: 3.13% | IC50 [2]: > 1000 µM | Activity [3]: Non-Toxic

CCCc1nn(C)c2c(NCc3ccc(F)cc3)nc(/C=C/c3ccc[n+]([O-])c3)nc12
inhibition at 10 µM [1]: 64.6% | IC50 [2]: < 40 µM | Activity [3]: Non-Toxic

C(=C\c1ccco1)/c1nc(N2CCOCC2)c2sccc2n1
inhibition at 10 µM [1]: 28.1% | IC50 [2]: > 1000 µM | Activity [3]: Non-Toxic

COc1cc(/C=C/c2nc(Nc3ccc(C(C)C)cc3)c3sccc3n2)cc(OC)c1OC
inhibition at 10 µM [1]: 13.3% | IC50 [2]: 370 µM | Activity [3]: Non-Toxic

COc1cc(/C=C/c2nc(N(C)c3ccccc3)c3sccc3n2)cc(OC)c1OC
inhibition at 10 µM [1]: 32.5% | IC50 [2]: 767 µM | Activity [3]: Non-Toxic

CCCc1nn(C)c2c(NC(C)C)nc(/C=C/c3cccnc3)nc12
inhibition at 10 µM [1]: 74.2% | IC50 [2]: 574 µM | Activity [3]: Non-Toxic

COc1cc(/C=C/c2nc(O)nc(NCCc3ccc(F)cc3)n2)cc(OC)c1OC
inhibition at 10 µM [1]: 36.5% | IC50 [2]: 483 µM | Activity [3]: Non-Toxic

CCCCNc1nc(/C=C/c2ccccc2)nc2ccsc12
inhibition at 10 µM [1]: 22.4% | IC50 [2]: > 1000 µM | Activity [3]: Non-Toxic

CCCc1nn(C)c2c(NCCc3ccccc3)nc(/C=C/c3cccnc3)nc12
inhibition at 10 µM [1]: 77.4% | IC50 [2]: > 1000 µM | Activity [3]: Non-Toxic

Brc1cccc(Nc2nc(/C=C/c3ccccc3)nc3ccsc23)c1
inhibition at 10 µM [1]: 28.8% | IC50 [2]: > 1000 µM | Activity [3]: Non-Toxic

Brc1ccc(Nc2nc(/C=C/c3ccccc3)nc3ccsc23)cc1
inhibition at 10 µM [1]: 19.5% | IC50 [2]: > 1000 µM | Activity [3]: Non-Toxic

COc1cc(/C=C/c2nccc(NC(C)C)n2)cc(OC)c1OC
inhibition at 10 µM [1]: 61% | IC50 [2]: < 40 µM | Activity [3]: Non-Toxic

COc1cc(/C=C/c2nc(OCc3ccccc3)c3sccc3n2)cc(OC)c1OC
inhibition at 10 µM [1]: 33.8% | IC50 [2]: > 1000 µM | Activity [3]: Non-Toxic

COc1cc(/C=C/c2nc(N(C)C)c3sccc3n2)cc(OC)c1OC
inhibition at 10 µM [1]: 27.2% | IC50 [2]: > 1000 µM | Activity [3]: Non-Toxic

C(=C\c1ccco1)/c1nc(NC2CC2)c2sccc2n1
inhibition at 10 µM [1]: 33.3% | IC50 [2]: > 1000 µM | Activity [3]: Non-Toxic

CN1CCN(c2nc(/C=C/c3ccccc3)nc3ccsc23)CC1
inhibition at 10 µM [1]: 18.5% | IC50 [2]: 198 µM | Activity [3]: Non-Toxic

COc1cc(/C=C/c2nc(Cl)cc(NCCc3ccc(F)cc3)n2)cc(OC)c1OC
inhibition at 10 µM [1]: 55.9% | IC50 [2]: < 40 µM | Activity [3]: Non-Toxic

CN(C)c1nc(/C=C/c2ccccc2)nc2ccsc12
inhibition at 10 µM [1]: 3.57% | IC50 [2]: > 1000 µM | Activity [3]: Non-Toxic

CCCc1nn(C)c2c(N3CCOCC3)nc(/C=C/c3nc(C)c(C)nc3C)nc12
inhibition at 10 µM [1]: 74.2% | IC50 [2]: 370 µM | Activity [3]: Non-Toxic

COc1cc(/C=C/c2nc(NCc3ccccc3Cl)c3sccc3n2)cc(OC)c1OC
inhibition at 10 µM [1]: 21.9% | IC50 [2]: > 1000 µM | Activity [3]: Non-Toxic

CCCc1nn(C)c2c(NC3CC3)nc(/C=C/c3cccnc3)nc12
inhibition at 10 µM [1]: 49.5% | IC50 [2]: 261 µM | Activity [3]: Non-Toxic
